Data taken from US20230128609A1, “TUMOR SUPPRESSION BY MODULATION OF NON-CANONICAL AUTOPHAGY (LAP) IN MYELOID CELLS” (St. Jude Children's Research Hospital, priority 2017, published 2023).

Test system: RAW cells expressing Venus-LC3
Test: Evaluation of LAP, as assessed by LC3-II lipidation upon zymozan stimulation, by flow cytometry
Format: cell-based
Details: RAW cells expressing Venus-LC3 stimulated with zymozan-Alexa594 (ZYM) for 1 h, treatment started 30 min prior to stimulation, digitonin-permeabilized cells
Description: (FIG. 9D) Evaluation of LAP, as assessed by LC3-II lipidation upon stimuli. RAW cells expressing Venus-LC3 were stimulated with ZYM for 1 h, treated with digitonin and accumulation of lipidated LC3-II in permeabilized cells was measured by flow cytometry. (FIG. 9E) Quantification of FIG. 9D, in MFI. […] Flow cytometry analysis. At the indicated time points, GFP-LC3+ cells can be collected, washed once with FACS buffer, and permeabilized with digitonin (Sigma, 200 g ml-1) for 15 min on ice. Cells can be washed 3 times with FACS buffer and analysed by flow cytometry for membrane-bound GFP—LC3—II.

c1ccc2c(c1)[I+]c1ccccc1-2 [DPI, diphenyleneiodonium]
LAP activity in vitro (LC3-II lipidation upon stimuli): abrogates LAP activity

COc1cc(C(C)=O)ccc1O [apocynin]
LAP activity in vitro (LC3-II lipidation upon stimuli): abrogates LAP activity
